Holding throughout (assay type): cell-based
For assay [1], the target named is T1, GLIC (Gloeobacter violaceus, UniProt Q7NDN8).
T1 sequence (Q7NDN8 44-359): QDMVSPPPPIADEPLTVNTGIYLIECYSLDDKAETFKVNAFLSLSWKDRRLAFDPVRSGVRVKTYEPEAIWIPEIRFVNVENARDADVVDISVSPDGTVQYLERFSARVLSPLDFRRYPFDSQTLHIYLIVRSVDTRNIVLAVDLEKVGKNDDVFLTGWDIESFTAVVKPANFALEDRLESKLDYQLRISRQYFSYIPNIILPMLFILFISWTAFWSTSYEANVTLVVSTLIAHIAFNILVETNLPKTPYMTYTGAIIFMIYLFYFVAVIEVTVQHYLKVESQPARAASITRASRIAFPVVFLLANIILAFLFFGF
The experiment in a line: two-electrode voltage clamp in Xenopus oocytes, […] inhibition at […]. As to conditions: read-out: % inhibition at 30 μM. Background: Two-electrode voltage clamp is typically applied to oocytes expressing channels or transporters.

Assay [2] addresses T2, GABAρ receptor (GABAAR ρ1) (Homo sapiens, UniProt P24046). The assay is described as follows: two-electrode voltage clamp in Xenopus oocytes, […] potentiation at […]. As to conditions: read-out: % potentiation at 10 μM.
Assay [3] has as its target T1, GLIC. The experiment in a line: two-electrode voltage clamp in Xenopus oocytes, […] inhibition at […]. As to conditions: read-out: % inhibition at 30 μM. This is another data set of the same source.
In assay [4] the target is T2, GABAρ receptor (GABAAR ρ1). The description is as above. As to conditions: read-out: % inhibition at 10 μM.
The target in assay [5] is T1, GLIC. Described as above. As to conditions: read-out: % inhibition at 100 μM.

These results are taken from PMC5600277 (Neuropharmacology, 2017).

Where two headings read alike, the source gives them in different places.

For orientation: inhibition means the percentage by which the read-out fell short of the control.

T2 sequence (P24046 22-479): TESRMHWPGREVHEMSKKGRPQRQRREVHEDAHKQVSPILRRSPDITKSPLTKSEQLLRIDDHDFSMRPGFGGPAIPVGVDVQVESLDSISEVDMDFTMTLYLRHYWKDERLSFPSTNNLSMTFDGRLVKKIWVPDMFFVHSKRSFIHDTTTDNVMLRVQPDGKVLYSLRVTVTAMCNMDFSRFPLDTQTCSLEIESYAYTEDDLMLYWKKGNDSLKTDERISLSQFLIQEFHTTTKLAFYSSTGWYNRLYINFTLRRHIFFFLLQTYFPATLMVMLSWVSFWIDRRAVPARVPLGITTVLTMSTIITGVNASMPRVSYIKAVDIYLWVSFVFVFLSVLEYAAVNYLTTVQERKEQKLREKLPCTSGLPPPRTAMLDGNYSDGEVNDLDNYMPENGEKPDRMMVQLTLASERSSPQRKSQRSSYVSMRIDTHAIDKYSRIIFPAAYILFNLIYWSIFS

For `C[C@]12CC[C@@H](O)C[C@@H]1CC[C@@H]1[C@@H]2CC[C@]2(C)[C@@H](C(=O)CO)CC[C@@H]12` [5α-THDOC], in assay [1], the inhibition at 30 µM was determined as 11 ± 2%. Moreover, in assay [2], the activation at 10 µM stood at 42 ± 2%.
For `C[C@]12CC[C@@H](O)C[C@H]1CC[C@@H]1[C@@H]2CC[C@]2(C)[C@@H](C(=O)CO)CC[C@@H]12` [5β-THDOC], in assay [3], the inhibition at 30 µM worked out at 67 ± 3%. For the same compound, the inhibition at 10 µM in assay [4] worked out at 25 ± 2%.
In the case of `CCCC(C)C1(CC)C(=O)NC(=O)NC1=O` (centres unmarked) [PB, pentobarbital], in assay [5], the inhibition at 100 µM came out at 26 ± 6%.
